Here are results for 6 compounds from ChEMBL document CHEMBL3421561, “CNS drug design: balancing physicochemical properties for optimal brain exposure” (J Med Chem, 2015).

The nature of data set [1]: Ratio of unbound drug in brain to plasma in mouse. The data set is classed as ADME, organism-based. Conditions: brain and plasma, read-out: K(p,uu,brain).
A further data set concerns the target Substance-P receptor (Homo sapiens, UniProt P25103). Briefly: Antagonist activity at NK1 receptor (unknown origin).
A short description of data set [2]: Ratio of drug uptake in brain to plasma in rat. To be noted: brain and plasma. Format: ADME.
The next data set deals with Gerbillinae. Nature of the data set: Antagonist activity at NK1 receptor in substance P-induced gerbil foot tapping model.
In a further data set the test system is Rattus norvegicus. Nature of the data set: AUC (0 to 1 hr) in rat at 0.5 mg/kg, iv. Format: ADME, organism-based, Plasma. Also on record: time < 1 hr, dose 0.5 mg/kg, route intravenous. Conditions: in vivo.
The test system of a further data set is Brain. Nature of the data set: AUC in rat brain at 10 mg/kg, sc. Format: ADME, organism-based. Also on record: dose 10 mg/kg, route subcutaneous. Conditions: in vivo.
Data set [3] is described as follows: AUC in rat interstitial fluid at 10 mg/kg, sc by transcortical microdialysis. Format: ADME, organism-based. Also on record: dose 10 mg/kg, route subcutaneous. To be noted: in vivo.
Another data set addresses Mu-type opioid receptor (Homo sapiens, UniProt P35372). Nature of the data set: biochemical. Format: cell-based, 293T.
Data set [4] can be described thus: Ratio of unbound drug in brain to plasma in rat. Conditions: brain and plasma, read-out: K(p,uu,brain). The data set is classed as ADME.
Data set [5] is described as follows: Apparent permeability of the compound. Conditions: not told.
Data set [6] can be described thus: Half life in dog. The data set is classed as ADME, organism-based, Canis lupus familiaris. To be noted: in vivo.
A short description of data set [7]: Oral bioavailability in dog. The data set is classed as ADME, organism-based, Canis lupus familiaris. Conditions: in vivo.
The nature of data set [8]: Solubility of the compound. Format: physicochemical.

pIC50, pKi: −log10 of the molar value.

Sequence of Mu-type opioid receptor (P35372 whole entry): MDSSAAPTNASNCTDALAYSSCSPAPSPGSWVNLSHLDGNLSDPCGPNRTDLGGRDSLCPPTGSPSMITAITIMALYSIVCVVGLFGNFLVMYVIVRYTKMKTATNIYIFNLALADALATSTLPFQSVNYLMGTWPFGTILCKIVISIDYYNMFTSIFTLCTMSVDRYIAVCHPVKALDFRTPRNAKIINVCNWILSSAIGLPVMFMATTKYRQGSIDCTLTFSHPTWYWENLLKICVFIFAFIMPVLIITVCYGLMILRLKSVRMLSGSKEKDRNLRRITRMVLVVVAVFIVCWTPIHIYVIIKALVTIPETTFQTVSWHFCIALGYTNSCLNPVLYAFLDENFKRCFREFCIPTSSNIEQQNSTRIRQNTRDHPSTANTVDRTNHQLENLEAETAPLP
Sequence of Substance-P receptor (P25103 whole entry): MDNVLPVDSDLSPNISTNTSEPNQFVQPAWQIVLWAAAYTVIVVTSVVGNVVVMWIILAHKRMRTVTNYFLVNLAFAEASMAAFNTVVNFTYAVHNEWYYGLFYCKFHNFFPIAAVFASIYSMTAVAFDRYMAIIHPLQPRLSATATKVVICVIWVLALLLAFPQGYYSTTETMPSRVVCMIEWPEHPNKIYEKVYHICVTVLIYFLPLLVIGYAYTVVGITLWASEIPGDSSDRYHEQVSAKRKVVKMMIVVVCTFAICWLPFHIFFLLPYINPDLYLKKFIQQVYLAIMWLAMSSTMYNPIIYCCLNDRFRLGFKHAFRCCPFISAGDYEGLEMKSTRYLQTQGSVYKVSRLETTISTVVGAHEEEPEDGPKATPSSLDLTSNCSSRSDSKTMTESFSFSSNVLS
Description for Mu-type opioid receptor: Displacement of [3H]naloxone from MOR (unknown origin) expressed in human 293T cells

With `COc1ccc(C(CN(C)C)C2(O)CCCCC2)cc1` (centres undefined) [VENLAFAXINE], the Kp uu in data set [1] turned out to be 0.98.

For the compound `C[C@H](NC(=O)[C@](Cc1c[nH]c2ccccc12)(CN(C)C)NC(=O)OCc1cc2ccccc2o1)c1ccccc1`, the pIC50 (usually −log10 of the IC50, conventionally taken in molar units) at Substance-P receptor was 9.30. Further, in data set [2], the Kp (in general, tissue or fluid exposure divided by exposure in the circulation) was 6. In the data set on Gerbillinae, the MED stood at 1 mg/kg. Besides, the AUC in the data set on Rattus norvegicus came to 50 ng·h/g.

Regarding `CN1CC[C@]23c4c5ccc(O)c4O[C@H]2[C@@H](O[C@@H]2O[C@H](C(=O)O)[C@@H](O)[C@H](O)[C@H]2O)C=C[C@H]3[C@H]1C5` [MORPHINE GLUCURONIDE], the results for the AUC (in the data set on Brain; in [3]) were 42 µM/min and 336 µM/min, respectively. In addition, the pKi (in general, the Ki on a negative log10 scale, so that one unit is a factor of ten) on Mu-type opioid receptor is 7.20. For the same compound, in [2], the Kp was 0.05. For the same compound, the Kp uu in data set [4] was determined as 0.56.

On to `CC(C)(C)c1ccc(C(O)CCCN2CCC(C(O)(c3ccccc3)c3ccccc3)CC2)cc1` (centres undefined) [TERFENADINE], for which the Papp (in general, a coefficient for how fast a substance crosses the barrier) in [5] was 28.5 ×10⁻⁶ cm/s.

For the compound `CN1CC[C@]23c4c5ccc(O)c4O[C@H]2[C@@H](O)C=C[C@H]3[C@H]1C5` [MORPHINE], the AUC with Brain was found to be 186 µM/min; in data set [3] it was 79 µM/min.

Turning to `C[C@H](NC(=O)[C@@](C)(Cc1c[nH]c2ccccc12)NC(=O)OCc1cc2ccccc2o1)c1ccccc1`, the half-life (in general, the time in which the quantity being followed falls by half) in data set [6] was over 6 h. The bioavailability (in general, the share of a dose that reaches the circulation, judged against a reference dose that is usually intravenous) in data set [7] amounted to 60%. In addition, in data set [2], the Kp was determined as 0.4. The compound further came in with an MED in the data set with Gerbillinae of 30 mg/kg. Besides, the solubility (in general, the concentration that dissolves in the medium under given conditions) in data set [8] was under 2 µg/mL. This compound showed an AUC in the data set with Rattus norvegicus of 120 ng·h/g.
